# Source: patent US12178791B2, “Haloallylamine sulfone derivative inhibitors of lysyl oxidases and uses thereof” (Syntara Limited, priority 2018, dated 2024)
# pIC50: −log10 of the molar value. Counter-ions that a name gives are not always drawn.
# Experiments:
# Format in all cases: biochemical
# [1] = target: Bovine LOX (Bos taurus (Bovine), UniProt P33072); test: LOX inhibition, Amplex Red oxidation assay; conditions: 30 min preincubation at 37 °C, putrescine substrate
# Excerpt: Lysyl oxidase (LOX) is an extracellular copper dependent enzyme which oxidizes peptidyl lysine and hydroxylysine residues in collagen and lysine residues in elastin to produce peptidyl alpha-aminoadipic-delta-semialdehydes. […] There are five LOX family members; these are LOX, LOXL1, LOXL2, LOXL3 and LOXL4. LOX and LOXL family members can be acquired as recombinant active proteins from commercial sources, or extracted from animal tissues like bovine aorta, tendons, pig skin; or prepared from cell cultures. The inhibitory effects of the compounds of the present invention were tested against the given LOX-LOXL preparation using a method based on the detection of hydrogen peroxide with an Amplex Red oxidation assay (Zhou et al. A stable nonfluorescent derivative of resorufin for the fluorometric determination of trace hydrogen peroxide: applications in detecting the activity of phagocyte NADPH oxidase and other oxidases. Anal. Biochem. 1997; 253, 162-168). The assay was developed using either 384 or 96 well format. Briefly, in a standard black, clear bottom 384 well plate assay 25 μL of a dilution of any of the isoenzymes and orthologues in 1.2 M urea, 50 mM sodium borate buffer (pH 8.2) were added into each well in the presence of 1 μM mofegiline and 0.5 mM pargyline (to inhibit SSAO and MAO-B and MAO-A, respectively; not necessary if the enzyme is from a recombinant or purified form). […] Twenty five μL of a reaction mixture containing twice the KM concentration of putrescine (Sigma Aldrich, e.g. 20 mM for LOX, or 10 mM for LOXL2 and LOXL3), 120 μM Amplex Red (Sigma Aldrich) and 1.5 U/mL horseradish peroxidase (Sigma Aldrich) prepared in 1.2 M urea, 50 mM sodium borate buffer (pH 8.2) were then added to the corresponding wells. The above volumes were doubled in the case of 96 wells plate. The fluorescence (RFU) was read every 2.5 min for 30 min at […] 37° C., excitation 565 nm and emission 590 (Optima; BMG labtech). The slope of the kinetics for each well was calculated using MARS data analysis software (BMG labtech) and this value was used to deduce the IC50 value (Dotmatics).
# [2] = target: LOXL2 (Homo sapiens (Human), UniProt Q9Y4K0); test: LOXL2 inhibition, Amplex Red oxidation assay; conditions: 30 min preincubation at 37 °C, putrescine substrate
# Excerpt: Lysyl oxidase (LOX) is an extracellular copper dependent enzyme which oxidizes peptidyl lysine and hydroxylysine residues in collagen and lysine residues in elastin to produce peptidyl alpha-aminoadipic-delta-semialdehydes. […] There are five LOX family members; these are LOX, LOXL1, LOXL2, LOXL3 and LOXL4. LOX and LOXL family members can be acquired as recombinant active proteins from commercial sources, or extracted from animal tissues like bovine aorta, tendons, pig skin; or prepared from cell cultures. The inhibitory effects of the compounds of the present invention were tested against the given LOX-LOXL preparation using a method based on the detection of hydrogen peroxide with an Amplex Red oxidation assay (Zhou et al. A stable nonfluorescent derivative of resorufin for the fluorometric determination of trace hydrogen peroxide: applications in detecting the activity of phagocyte NADPH oxidase and other oxidases. Anal. Biochem. 1997; 253, 162-168). The assay was developed using either 384 or 96 well format. Briefly, in a standard black, clear bottom 384 well plate assay 25 μL of a dilution of any of the isoenzymes and orthologues in 1.2 M urea, 50 mM sodium borate buffer (pH 8.2) were added into each well in the presence of 1 μM mofegiline and 0.5 mM pargyline (to inhibit SSAO and MAO-B and MAO-A, respectively; not necessary if the enzyme is from a recombinant or purified form). Test compounds were dissolved in DMSO and tested in a Concentration Response Curve (CRC) with 11 data points, typically in the micromolar or nanomolar range after incubation with the enzyme for 30 min at 37° C. Twenty five μL of a reaction mixture containing twice the KM concentration of putrescine (Sigma Aldrich, e.g. 20 mM for LOX, or 10 mM for LOXL2 and LOXL3), 120 μM Amplex Red (Sigma Aldrich) and 1.5 U/mL horseradish peroxidase (Sigma Aldrich) prepared in 1.2 M urea, 50 mM sodium borate buffer (pH 8.2) were then added to the corresponding wells. The above volumes were doubled in the case of 96 wells plate. The fluorescence (RFU) was read every 2.5 min for 30 min at […] 37° C., excitation 565 nm and emission 590 (Optima; BMG labtech). The slope of the kinetics for each well was calculated using MARS data analysis software (BMG labtech) and this value was used to deduce the IC50 value (Dotmatics).
# [3] = target: Human recombinant SSAO/VAP-1 (Homo sapiens (Human), UniProt Q16853); test: Inhibition of human recombinant SSAO/VAP-1; conditions: 30 min preincubation at 37 °C, benzylamine 600 μM; read-out: SSAO/VAP-1 Activity IC50
# Protocol: Human recombinant SSAO/VAP-1 amine oxidase activity was determined using the coupled colorimetric method as described for monoamine oxidase, copper-containing amine oxidases and related enzymes (Holt A. and Palcic M., A peroxidase-coupled continuous absorbance plate-reader assay for flavin monoamine oxidases, copper-containing amine oxidases and related enzymes. Nat Protoc 2006; 1: 2498-2505). Briefly, a cloned cDNA template corresponding to residues 34-763 of human SSAO/VAP-1, and incorporating a mouse Ig kappa (κ) signal sequence, N-terminal flag epitope tag and tobacco etch virus (TEV) cleavage site, was assembled in a mammalian expression vector (pLO-CMV) by Geneart AG. This vector containing human SSAO/VAP-1 residues was transfected into CHO-Kl glycosylation mutant cell line, Lec 8. A clone stably expressing human SSAO/VAP-1 was isolated and cultured in large scale. Active human SSAO/VAP-1 was purified and recovered using immunoaffinity chromatography. This was used as the source for SSAO/VAP-1 activity. A high-throughput colorimetric assay was developed using either 96 or 384 well format. Briefly, in a standard 96 well plate assay 50 μL of purified human SSAO/VAP-1 (0.25 μg/mL) in 0.1 M sodium phosphate buffer (pH 7.4) was added into each well. Test compounds were dissolved in DMSO and tested in a Concentration Response Curve (CRC) with 4-11 data points, typically in the micromolar or nanomolar range after incubation with human SSAO/VAP-1 for 30 min at 37° C. After 30 min incubation, 50 μL of the reaction mixture containing 600 μM benzylamine (Sigma Aldrich), 120 μM Amplex Red (Sigma Aldrich) and 1.5 U/mL horseradish peroxidase (Sigma Aldrich) prepared in 0.1 M sodium phosphate buffer (pH 7.4) were added to the corresponding well. The fluorescence unit (RFU) was read every 2.5 min for 30 min at 37° C. excitation 565 nm and emission 590 (Optima; BMG labtech). The slope of the kinetics for each well was calculated using MARS data analysis software (BMG labtech) and this value was used to deduce the IC50 value (Dotmatics).
# [4] = target: Recombinant human MAO-B (Homo sapiens (Human), UniProt P27338); test: Inhibition of human recombinant MAO-B; conditions: benzylamine 100 μM
# Protocol: The specificity of the compounds of this invention was tested by determining their ability to inhibit MAO-B activities in vitro. Recombinant human MAO-B (0.06 mg/mL; Sigma Aldrich) was used as source of MAO-B enzyme activities. The assay was performed in a similar way as for human SSAO/VAP-1 (Example 28) except, the substrate benzylamine was used at 100 μM.
# [5] = target: LOXL1 (Homo sapiens (Human), UniProt Q08397); test: Jump dilution experiment, sustained inhibition of LOXL1; conditions: jump dilution after 40 min at 37 °C with 10× or 30× IC50; vs non-inhibited controls;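 further: 30× IC50 used only where needed so inhibitor exceeds enzyme concentration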
# Protocol: Jump Dilution experiment: The assay was developed using a 96 well format and the starting enzyme concentration was set 100 times higher than for the inhibition studies. […] After the incubation, the mixture was diluted 50× in assay buffer, followed by a further 2× dilution in Amplex Red-horseradish peroxidase-putrescine reaction mix (same as per the inhibition studies) prior to the fluorescent measurement. Results were expressed in % recovery of the signal after a specified time by comparison with non-inhibited controls.
# Sequence of LOXL1 (Q08397 96-574, species assumed): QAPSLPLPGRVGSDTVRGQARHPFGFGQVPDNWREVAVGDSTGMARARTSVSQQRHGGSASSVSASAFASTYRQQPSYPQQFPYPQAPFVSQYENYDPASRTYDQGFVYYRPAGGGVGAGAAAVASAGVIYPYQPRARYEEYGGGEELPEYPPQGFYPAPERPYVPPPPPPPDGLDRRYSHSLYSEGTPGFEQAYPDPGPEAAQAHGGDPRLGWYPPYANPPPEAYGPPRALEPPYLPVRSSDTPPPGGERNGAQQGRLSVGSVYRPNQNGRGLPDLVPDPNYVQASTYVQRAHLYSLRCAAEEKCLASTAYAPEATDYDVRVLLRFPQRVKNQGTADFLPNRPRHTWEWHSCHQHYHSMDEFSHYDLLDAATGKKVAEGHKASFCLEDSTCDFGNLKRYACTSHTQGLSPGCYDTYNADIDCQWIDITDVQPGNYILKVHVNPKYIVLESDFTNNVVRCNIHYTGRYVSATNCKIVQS
# Sequence of Recombinant human MAO-B (P27338 whole entry): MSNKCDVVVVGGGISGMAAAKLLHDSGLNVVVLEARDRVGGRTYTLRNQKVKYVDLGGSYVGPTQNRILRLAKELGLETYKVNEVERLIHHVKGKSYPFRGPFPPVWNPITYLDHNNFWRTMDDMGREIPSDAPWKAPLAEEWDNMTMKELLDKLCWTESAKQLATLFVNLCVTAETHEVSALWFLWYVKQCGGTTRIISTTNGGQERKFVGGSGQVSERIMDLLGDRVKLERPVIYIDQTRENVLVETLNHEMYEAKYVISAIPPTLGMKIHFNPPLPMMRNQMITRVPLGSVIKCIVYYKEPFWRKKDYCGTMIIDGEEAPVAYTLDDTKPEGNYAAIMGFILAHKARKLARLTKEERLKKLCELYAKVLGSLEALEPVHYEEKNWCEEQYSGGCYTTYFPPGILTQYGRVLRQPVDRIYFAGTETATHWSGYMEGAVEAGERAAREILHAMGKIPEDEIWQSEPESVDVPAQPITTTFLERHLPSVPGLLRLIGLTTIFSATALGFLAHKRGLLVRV
# Sequence of Human recombinant SSAO/VAP-1 (Q16853 34-763): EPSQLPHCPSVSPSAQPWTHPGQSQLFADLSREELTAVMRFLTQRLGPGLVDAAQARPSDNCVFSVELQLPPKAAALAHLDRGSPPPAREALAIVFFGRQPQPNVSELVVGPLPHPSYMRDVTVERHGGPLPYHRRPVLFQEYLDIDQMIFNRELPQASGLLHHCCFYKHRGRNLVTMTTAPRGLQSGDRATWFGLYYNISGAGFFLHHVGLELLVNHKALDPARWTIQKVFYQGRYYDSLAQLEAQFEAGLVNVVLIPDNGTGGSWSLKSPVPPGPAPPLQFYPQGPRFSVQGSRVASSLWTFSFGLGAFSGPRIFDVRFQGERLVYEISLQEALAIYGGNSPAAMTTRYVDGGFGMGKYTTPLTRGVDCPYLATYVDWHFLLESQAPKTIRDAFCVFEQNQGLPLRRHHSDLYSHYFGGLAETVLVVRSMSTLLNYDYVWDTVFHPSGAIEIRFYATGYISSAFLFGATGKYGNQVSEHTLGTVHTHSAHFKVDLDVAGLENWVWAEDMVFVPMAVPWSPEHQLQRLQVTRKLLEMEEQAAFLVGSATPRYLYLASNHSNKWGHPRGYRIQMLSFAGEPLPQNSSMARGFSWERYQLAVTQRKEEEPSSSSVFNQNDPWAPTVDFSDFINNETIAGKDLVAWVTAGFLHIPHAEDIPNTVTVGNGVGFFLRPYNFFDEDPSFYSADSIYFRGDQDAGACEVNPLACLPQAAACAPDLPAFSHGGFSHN
# Sequence of LOXL2 (Q9Y4K0 26-774): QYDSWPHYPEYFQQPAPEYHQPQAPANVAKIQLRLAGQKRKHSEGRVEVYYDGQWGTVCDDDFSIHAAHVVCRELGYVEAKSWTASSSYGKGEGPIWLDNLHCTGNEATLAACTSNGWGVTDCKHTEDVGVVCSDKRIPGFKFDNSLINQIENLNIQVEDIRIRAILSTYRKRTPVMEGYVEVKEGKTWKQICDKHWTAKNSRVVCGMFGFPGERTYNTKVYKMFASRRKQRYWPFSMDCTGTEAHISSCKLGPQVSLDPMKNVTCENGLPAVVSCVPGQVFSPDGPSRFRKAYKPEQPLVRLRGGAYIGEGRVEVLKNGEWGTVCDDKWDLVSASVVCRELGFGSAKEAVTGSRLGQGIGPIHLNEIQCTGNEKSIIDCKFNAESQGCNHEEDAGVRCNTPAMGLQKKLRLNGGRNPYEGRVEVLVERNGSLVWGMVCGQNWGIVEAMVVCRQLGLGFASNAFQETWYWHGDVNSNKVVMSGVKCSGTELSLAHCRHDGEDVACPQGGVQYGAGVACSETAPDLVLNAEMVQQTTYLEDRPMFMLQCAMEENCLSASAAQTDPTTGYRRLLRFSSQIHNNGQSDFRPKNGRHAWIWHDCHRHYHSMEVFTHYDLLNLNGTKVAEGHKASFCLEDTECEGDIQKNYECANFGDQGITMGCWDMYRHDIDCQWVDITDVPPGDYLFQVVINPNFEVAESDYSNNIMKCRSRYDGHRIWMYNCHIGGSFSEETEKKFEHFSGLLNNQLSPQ
# Sequence of Bovine LOX (P33072 170-418): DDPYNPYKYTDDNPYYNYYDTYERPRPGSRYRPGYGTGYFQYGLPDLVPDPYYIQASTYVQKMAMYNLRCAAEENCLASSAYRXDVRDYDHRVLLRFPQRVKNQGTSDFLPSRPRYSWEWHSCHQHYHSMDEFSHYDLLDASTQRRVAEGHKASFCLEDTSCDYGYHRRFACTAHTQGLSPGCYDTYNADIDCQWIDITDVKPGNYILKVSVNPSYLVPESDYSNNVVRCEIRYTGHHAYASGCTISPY
SMILES,pIC50 [1],pIC50 [2],pIC50 [3],pIC50 [4],LOXL1 - Recovery of activity. (%) [5] [%]
"NC/C=C(\F)CS(=O)(=O)c1cc(C(F)(F)F)cc(C(F)(F)F)c1 [Compound 2, (Z)-4-((3,5-bis(trifluoromethyl)phenyl)sulfonyl)-3-fluorobut-2-en-1-amine hydrochloride]",> 5.00,> 5.00,< 4.52,< 4.52,
"CS(=O)(=O)c1ccc(S(=O)(=O)C/C(F)=C/CN)cc1 [Compound 3, (Z)-3-fluoro-4-((4-(methylsulfonyl)phenyl)sulfonyl)but-2-en-1-amine]",> 5.00,> 5.00,< 4.52,< 4.52,
"NC/C=C(\F)CS(=O)(=O)c1ccccc1OCc1ccccc1 [Compound 7, (Z)-4-((2-(benzyloxy)phenyl)sulfonyl)-3-fluorobut-2-en-1-amine hydrochloride]",> 5.00,> 6.00,< 4.52,< 4.52,3.0
"NC/C=C(\F)CS(=O)(=O)c1ccccc1OCc1ccc(S(N)(=O)=O)cc1 [Compound 8, (Z)-4-((2-((4-amino-2-fluorobut-2-en-1-yl)sulfonyl)phenoxy)methyl)benzenesulfonamide hydrochloride]",> 6.00,> 6.00,< 4.52,< 4.52,35.1
"CC(C)N(C(C)C)S(=O)(=O)c1ccc(COc2ccccc2S(=O)(=O)C/C(F)=C/CN)cc1 [Compound 11, (Z)-4-((2-((4-amino-2-fluorobut-2-en-1-yl)sulfonyl)phenoxy)methyl)-N,N-diisopropylbenzenesulfonamide hydrochloride]",> 6.00,> 6.00,< 4.52,< 4.52,10.2
"CC(C)NS(=O)(=O)c1ccc(COc2ccccc2S(=O)(=O)C/C(F)=C/CN)cc1 [Compound 14, (Z)-4-((2-((4-amino-2-fluorobut-2-en-1-yl)sulfonyl)phenoxy)methyl)-N-isopropylbenzenesulfonamide hydrochloride]",> 6.00,> 6.00,< 4.52,< 4.52,1.9
"CC(C)N(C(C)C)S(=O)(=O)c1ccc(NC(=O)c2ccccc2S(=O)(=O)C/C(F)=C/CN)cc1 [Compound 15, (Z)-2-((4-amino-2-fluorobut-2-en-1-yl)sulfonyl)-N-(4-(N,N-diisopropylsulfamoyl)phenyl)benzamide hydrochloride]",> 5.00,> 6.00,< 4.52,< 4.52,26.1
"NC/C=C(\F)CS(=O)(=O)c1ccncc1 [Compound 29, (Z)-3-fluoro-4-(pyridin-4-ylsulfonyl)but-2-en-1-amine dihydrochloride]",> 5.00,> 6.00,,,8.6
"NC/C=C(\F)CS(=O)(=O)c1ccccn1 [Compound 30, (Z)-3-fluoro-4-(pyridin-2-ylsulfonyl)but-2-en-1-amine dihydrochloride]",> 5.00,> 6.00,,,1.9
"NC/C=C(\F)CS(=O)(=O)c1ccc2ccccc2n1 [Compound 32, (Z)-3-fluoro-4-(quinolin-2-ylsulfonyl)but-2-en-1-amine dihydrochloride]",> 5.00,> 6.00,,< 4.52,
"NC/C=C(\F)CS(=O)(=O)c1cccc(F)c1 [Compound 38, (Z)-3-fluoro-4-(3-fluorophenylsulfonyl)but-2-en-1-amine hydrochloride]",> 5.00,> 6.00,,,1.6
"CC(C)c1ncccc1S(=O)(=O)C/C(F)=C/CN [Compound 45, (Z)-3-fluoro-4-(2-isopropylpyridin-3-ylsulfonyl)but-2-en-1-amine dihydrochloride]",> 5.00,> 6.00,< 4.52,,6.6
"Cc1ccc(S(=O)(=O)C/C(F)=C/CN)cn1 [Compound 46, (Z)-3-fluoro-4-(6-methylpyridin-3-ylsulfonyl)but-2-en-1-amine dihydrochloride]",> 5.00,> 6.00,,,1.0
"Cc1nc2c(S(=O)(=O)C/C(F)=C/CN)cccc2s1 [Compound 50, (Z)-3-fluoro-4-((2-methylbenzo[d]thiazol-4-yl)sulfonyl)but-2-en-1-amine hydrochloride]",> 5.00,> 6.00,< 4.52,,
"NC/C=C(\F)CS(=O)(=O)c1cccc2cc(F)cnc12 [Compound 51, (Z)-3-fluoro-4-((3-fluoroquinolin-8-yl)sulfonyl)but-2-en-1-amine dihydrochloride]",> 5.00,> 6.00,< 5.00,< 4.52,
